Test results as given in ChEMBL document CHEMBL5055626 (J Med Chem, 2021).
The source made the active and inactive calls. The calls are words filed in the database; no cut-off is given here. Where a SMILES comes first, the peptide text is derived from it. Bridges are numbered along the chain shown (N, C = ends). [ ]: non-standard residue; d: D form. sY = N[C@@H](Cc1ccc(OS(=O)(=O)O)cc1)C(=O)O

Legend:
[1] = Antagonist activity at human nAChR alpha7 S184N mutant expressed in xenopus oocytes assessed as inhibition of Ach- induced response at -70 mV holding potential preincubated for 5 mins followed by Ach stimulation by voltage-clamp based electrophysiological method; assay type: cell-based; details: Oocyte
[2] = target: Neuronal acetylcholine receptor subunit alpha-7 (Homo sapiens, UniProt P36544); assay type: cell-based, Oocyte
[3] = target: Neuronal acetylcholine receptor subunit alpha-7 (Rattus norvegicus, UniProt Q05941); experiment: Antagonist activity at rat alpha7 nAChR expressed in xenopus oocytes assessed as inhibition of Ach- induced response at -70 mV holding potential preincubated for 5 mins followed by Ach stimulation by voltage-clamp based electrophysiological method; assay type: cell-based, Oocyte
[4] = Antagonist activity at human nAChR alpha7 R186K mutant expressed in xenopus oocytes assessed as inhibition of Ach- induced response at -70 mV holding potential preincubated for 5 mins followed by Ach stimulation by voltage-clamp based electrophysiological method; assay type: cell-based; details: Oocyte
[5] = Antagonist activity at human nAChR alpha7 S184N/R186K double mutant expressed in xenopus oocytes assessed as inhibition of Ach- induced response at -70 mV holding potential preincubated for 5 mins followed by Ach stimulation by voltage-clamp based electrophysiological method; assay type: cell-based; details: Oocyte
[6] = Antagonist activity at rat nAChR alpha7 K186R mutant expressed in xenopus oocytes assessed as inhibition of Ach- induced response at -70 mV holding potential preincubated for 5 mins followed by Ach stimulation by voltage-clamp based electrophysiological method; assay type: cell-based; details: Oocyte
[7] = Antagonist activity at rat nAChR alpha7 N184S mutant expressed in xenopus oocytes assessed as inhibition of Ach- induced response at -70 mV holding potential preincubated for 5 mins followed by Ach stimulation by voltage-clamp based electrophysiological method; assay type: cell-based; details: Oocyte
[8] = Antagonist activity at rat nAChR alpha7 Q141H mutant expressed in xenopus oocytes assessed as inhibition of Ach- induced response at -70 mV holding potential preincubated for 5 mins followed by Ach stimulation by voltage-clamp based electrophysiological method; assay type: cell-based; details: Oocyte
[9] = target: Neuronal acetylcholine receptor; alpha3/beta2 (Rattus norvegicus, UniProt P04757+P12390); experiment: Antagonist activity at rat alpha3beta2 nAChR expressed in xenopus oocytes assessed as inhibition of Ach- induced response at -70 mV holding potential preincubated for 5 mins followed by Ach stimulation by voltage-clamp based electrophysiological method; assay type: cell-based, Oocyte
[10] = target: Neuronal acetylcholine receptor; alpha4/beta4 (Rattus norvegicus, UniProt P09483+P12392); experiment: Antagonist activity at rat alpha4beta4 nAChR expressed in xenopus oocytes assessed as inhibition of Ach- induced response at -70 mV holding potential preincubated for 5 mins followed by Ach stimulation by voltage-clamp based electrophysiological method; assay type: cell-based, Oocyte
[11] = target: Neuronal acetylcholine receptor; alpha4/beta2 (Rattus norvegicus, UniProt P09483+P12390); experiment: Antagonist activity at rat alpha4beta2 nAChR expressed in xenopus oocytes assessed as inhibition of Ach- induced response at -70 mV holding potential preincubated for 5 mins followed by Ach stimulation by voltage-clamp based electrophysiological method; assay type: cell-based, Oocyte
[12] = target: Neuronal acetylcholine receptor; alpha2/beta2 (Rattus norvegicus) (UniProt P12389+P12390); experiment: Antagonist activity at rat alpha2beta2 nAChR expressed in xenopus oocytes assessed as inhibition of Ach- induced response at 10 uM at -70 mV holding potential preincubated for 5 mins followed by Ach stimulation by voltage-clamp based electrophysiological method; assay type: cell-based; details: Oocyte
[13] = target: Neuronal acetylcholine receptor; alpha2/beta4 (Rattus norvegicus) (UniProt P12389+P12392); experiment: Antagonist activity at rat alpha2beta4 nAChR expressed in xenopus oocytes assessed as inhibition of Ach- induced response at 10 uM at -70 mV holding potential preincubated for 5 mins followed by Ach stimulation by voltage-clamp based electrophysiological method; assay type: cell-based; details: Oocyte
[14] = target: Nicotinic acetylcholine receptor alpha9/alpha10 (Rattus norvegicus, UniProt P43144+Q9JLB5); experiment: Antagonist activity at rat alpha9alpha10 nAChR expressed in xenopus oocytes assessed as inhibition of Ach- induced response at -70 mV holding potential preincubated for 5 mins followed by Ach stimulation by voltage-clamp based electrophysiological method; assay type: cell-based, Oocyte
[15] = target: Neuronal acetylcholine receptor; alpha2/beta4 (Rattus norvegicus, UniProt P12389+P12392); experiment: Antagonist activity at rat alpha2beta4 nAChR expressed in xenopus oocytes assessed as inhibition of Ach- induced response at -70 mV holding potential preincubated for 5 mins followed by Ach stimulation by voltage-clamp based electrophysiological method; assay type: cell-based, Oocyte
[16] = target: Neuronal acetylcholine receptor; alpha4/beta2 (Rattus norvegicus) (UniProt P09483+P12390); experiment: Antagonist activity at rat alpha4beta2 nAChR expressed in xenopus oocytes assessed as inhibition of Ach- induced response at 10 uM at -70 mV holding potential preincubated for 5 mins followed by Ach stimulation by voltage-clamp based electrophysiological method; assay type: cell-based; details: Oocyte
[17] = target: Neuronal acetylcholine receptor; alpha4/beta4 (Rattus norvegicus) (UniProt P09483+P12392); experiment: Antagonist activity at rat alpha4beta4 nAChR expressed in xenopus oocytes assessed as inhibition of Ach- induced response at 10 uM at -70 mV holding potential preincubated for 5 mins followed by Ach stimulation by voltage-clamp based electrophysiological method; assay type: cell-based; details: Oocyte
[18] = target: Nicotinic acetylcholine receptor alpha6/alpha3/beta4 (Homo sapiens, UniProt P30926+P32297+Q15825); experiment: Antagonist activity at rat alpha6/alpha3beta4 nAChR expressed in xenopus oocytes assessed as inhibition of Ach- induced response at -70 mV holding potential preincubated for 5 mins followed by Ach stimulation by voltage-clamp based electrophysiological method; assay type: cell-based, Oocyte
[19] = target: Neuronal acetylcholine receptor; alpha2/beta2 (Rattus norvegicus, UniProt P12389+P12390); experiment: Antagonist activity at rat alpha2beta2 nAChR expressed in xenopus oocytes assessed as inhibition of Ach- induced response at -70 mV holding potential preincubated for 5 mins followed by Ach stimulation by voltage-clamp based electrophysiological method; assay type: cell-based, Oocyte
[20] = target: Nicotinic acetylcholine receptor alpha9/alpha10 (Rattus norvegicus) (UniProt P43144+Q9JLB5); experiment: Antagonist activity at rat alpha9alpha10 nAChR expressed in xenopus oocytes assessed as inhibition of Ach- induced response at 10 uM at -70 mV holding potential preincubated for 5 mins followed by Ach stimulation by voltage-clamp based electrophysiological method; assay type: cell-based; details: Oocyte
[21] = target: Neuronal acetylcholine receptor; alpha3/beta4 (Rattus norvegicus) (UniProt P04757+P12392); experiment: Antagonist activity at rat alpha3beta4 nAChR expressed in xenopus oocytes assessed as inhibition of Ach- induced response at 10 uM at -70 mV holding potential preincubated for 5 mins followed by Ach stimulation by voltage-clamp based electrophysiological method; assay type: cell-based; details: Oocyte
[22] = Antagonist activity at rat alpha6/ alpha3beta2beta3 nAChR expressed in xenopus oocytes assessed as inhibition of Ach- induced response at -70 mV holding potential preincubated for 5 mins followed by Ach stimulation by voltage-clamp based electrophysiological method; assay type: cell-based; details: Oocyte
[23] = target: Neuronal acetylcholine receptor; alpha3/beta4 (Rattus norvegicus, UniProt P04757+P12392); experiment: Antagonist activity at rat alpha3beta4 nAChR expressed in xenopus oocytes assessed as inhibition of Ach- induced response at -70 mV holding potential preincubated for 5 mins followed by Ach stimulation by voltage-clamp based electrophysiological method; assay type: cell-based, Oocyte

Sequence of Neuronal acetylcholine receptor; alpha3/beta2 (P04757 whole entry): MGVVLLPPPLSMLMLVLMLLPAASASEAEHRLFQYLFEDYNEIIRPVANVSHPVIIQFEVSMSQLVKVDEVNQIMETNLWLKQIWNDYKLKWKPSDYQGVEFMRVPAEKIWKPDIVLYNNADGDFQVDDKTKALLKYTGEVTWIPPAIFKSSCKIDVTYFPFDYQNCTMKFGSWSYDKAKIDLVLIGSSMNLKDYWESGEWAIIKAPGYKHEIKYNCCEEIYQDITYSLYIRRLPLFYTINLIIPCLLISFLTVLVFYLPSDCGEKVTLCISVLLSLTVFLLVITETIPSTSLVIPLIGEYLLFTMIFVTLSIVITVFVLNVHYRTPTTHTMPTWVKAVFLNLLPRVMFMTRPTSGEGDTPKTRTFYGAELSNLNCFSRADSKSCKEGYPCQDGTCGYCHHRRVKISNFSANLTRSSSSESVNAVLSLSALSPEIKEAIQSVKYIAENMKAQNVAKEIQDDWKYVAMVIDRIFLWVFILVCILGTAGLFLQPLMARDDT
Sequence of Neuronal acetylcholine receptor; alpha3/beta2 (P12390 whole entry): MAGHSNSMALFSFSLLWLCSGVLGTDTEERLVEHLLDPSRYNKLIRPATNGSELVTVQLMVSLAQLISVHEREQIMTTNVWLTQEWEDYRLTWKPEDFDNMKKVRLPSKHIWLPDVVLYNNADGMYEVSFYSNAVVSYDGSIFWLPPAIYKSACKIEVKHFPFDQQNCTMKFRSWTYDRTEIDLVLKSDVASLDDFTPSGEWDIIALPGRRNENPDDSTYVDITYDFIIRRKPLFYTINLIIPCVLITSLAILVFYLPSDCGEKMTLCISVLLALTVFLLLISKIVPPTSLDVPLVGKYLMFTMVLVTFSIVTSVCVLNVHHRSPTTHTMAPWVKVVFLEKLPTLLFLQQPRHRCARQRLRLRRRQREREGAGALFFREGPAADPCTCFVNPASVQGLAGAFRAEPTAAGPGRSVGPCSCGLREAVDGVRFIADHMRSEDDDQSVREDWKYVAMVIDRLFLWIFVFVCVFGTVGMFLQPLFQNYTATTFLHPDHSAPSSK
Sequence of Neuronal acetylcholine receptor subunit alpha-7 (Rattus norvegicus, UniProt Q05941) (Q05941 whole entry): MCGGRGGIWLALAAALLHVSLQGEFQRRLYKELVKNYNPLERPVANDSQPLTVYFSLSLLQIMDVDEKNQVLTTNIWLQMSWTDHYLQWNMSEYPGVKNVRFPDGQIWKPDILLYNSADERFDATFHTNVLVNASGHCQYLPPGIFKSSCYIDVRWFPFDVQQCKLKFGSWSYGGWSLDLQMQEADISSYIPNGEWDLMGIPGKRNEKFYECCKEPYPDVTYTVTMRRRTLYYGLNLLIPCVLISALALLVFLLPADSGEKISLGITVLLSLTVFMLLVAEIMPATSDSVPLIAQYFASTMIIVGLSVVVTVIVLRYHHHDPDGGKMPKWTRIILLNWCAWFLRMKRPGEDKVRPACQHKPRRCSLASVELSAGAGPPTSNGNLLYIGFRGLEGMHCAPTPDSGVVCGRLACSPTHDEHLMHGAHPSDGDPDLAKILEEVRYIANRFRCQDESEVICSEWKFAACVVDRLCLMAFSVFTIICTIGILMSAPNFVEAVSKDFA
Sequence of Nicotinic acetylcholine receptor alpha9/alpha10 (P43144 whole entry): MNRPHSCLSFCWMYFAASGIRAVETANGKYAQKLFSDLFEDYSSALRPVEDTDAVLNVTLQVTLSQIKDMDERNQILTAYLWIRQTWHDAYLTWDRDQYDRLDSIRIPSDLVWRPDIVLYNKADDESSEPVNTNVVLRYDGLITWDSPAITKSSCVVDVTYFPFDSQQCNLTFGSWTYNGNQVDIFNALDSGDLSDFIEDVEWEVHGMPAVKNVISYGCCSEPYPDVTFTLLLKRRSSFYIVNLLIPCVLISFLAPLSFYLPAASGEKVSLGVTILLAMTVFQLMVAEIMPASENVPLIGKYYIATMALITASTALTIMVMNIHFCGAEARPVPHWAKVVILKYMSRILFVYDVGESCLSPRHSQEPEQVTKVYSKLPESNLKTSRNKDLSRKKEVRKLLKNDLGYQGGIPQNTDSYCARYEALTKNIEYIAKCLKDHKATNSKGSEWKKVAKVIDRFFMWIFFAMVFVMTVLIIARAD
Sequence of Nicotinic acetylcholine receptor alpha9/alpha10 (Q9JLB5 whole entry): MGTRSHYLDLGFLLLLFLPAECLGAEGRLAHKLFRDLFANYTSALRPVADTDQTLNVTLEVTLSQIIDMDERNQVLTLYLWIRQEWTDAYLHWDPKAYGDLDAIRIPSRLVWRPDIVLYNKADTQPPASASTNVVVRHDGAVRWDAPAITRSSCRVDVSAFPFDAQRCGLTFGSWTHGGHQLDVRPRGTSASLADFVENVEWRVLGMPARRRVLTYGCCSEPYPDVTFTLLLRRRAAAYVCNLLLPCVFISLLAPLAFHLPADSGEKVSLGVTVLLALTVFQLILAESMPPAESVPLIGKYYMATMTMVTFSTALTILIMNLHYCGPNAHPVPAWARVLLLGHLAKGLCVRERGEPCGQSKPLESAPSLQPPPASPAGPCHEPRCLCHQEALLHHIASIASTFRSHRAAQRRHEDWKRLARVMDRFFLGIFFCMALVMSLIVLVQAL
Sequence of Nicotinic acetylcholine receptor alpha6/alpha3/beta4 (P30926 whole entry): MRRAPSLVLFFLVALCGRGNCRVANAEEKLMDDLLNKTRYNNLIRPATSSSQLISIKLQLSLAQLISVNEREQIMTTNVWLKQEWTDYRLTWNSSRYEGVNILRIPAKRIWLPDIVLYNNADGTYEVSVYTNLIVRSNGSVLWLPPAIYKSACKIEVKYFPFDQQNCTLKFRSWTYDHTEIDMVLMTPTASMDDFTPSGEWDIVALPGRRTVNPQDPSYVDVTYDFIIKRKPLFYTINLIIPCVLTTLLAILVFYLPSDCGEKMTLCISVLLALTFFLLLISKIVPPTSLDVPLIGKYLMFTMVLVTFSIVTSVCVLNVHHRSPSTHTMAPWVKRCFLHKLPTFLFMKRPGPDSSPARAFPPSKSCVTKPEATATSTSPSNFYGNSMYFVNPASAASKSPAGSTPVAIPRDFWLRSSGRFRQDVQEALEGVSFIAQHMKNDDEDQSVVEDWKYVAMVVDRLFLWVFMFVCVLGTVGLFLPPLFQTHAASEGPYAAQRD
Sequence of Nicotinic acetylcholine receptor alpha6/alpha3/beta4 (P32297 whole entry): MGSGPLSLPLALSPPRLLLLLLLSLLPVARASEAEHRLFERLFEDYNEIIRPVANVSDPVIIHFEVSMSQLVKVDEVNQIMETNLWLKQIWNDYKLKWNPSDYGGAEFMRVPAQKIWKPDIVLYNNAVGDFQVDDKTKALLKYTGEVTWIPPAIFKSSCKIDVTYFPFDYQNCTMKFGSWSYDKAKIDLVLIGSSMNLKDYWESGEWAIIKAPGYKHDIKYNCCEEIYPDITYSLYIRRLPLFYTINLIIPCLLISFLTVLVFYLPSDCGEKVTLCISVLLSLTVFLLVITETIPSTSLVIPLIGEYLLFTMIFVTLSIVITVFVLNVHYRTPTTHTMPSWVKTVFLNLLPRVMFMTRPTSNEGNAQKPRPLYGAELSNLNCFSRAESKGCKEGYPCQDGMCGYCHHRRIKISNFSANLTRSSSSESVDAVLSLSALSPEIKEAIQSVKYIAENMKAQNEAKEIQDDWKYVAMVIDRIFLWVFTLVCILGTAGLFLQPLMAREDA
Sequence of Nicotinic acetylcholine receptor alpha6/alpha3/beta4 (Q15825 whole entry): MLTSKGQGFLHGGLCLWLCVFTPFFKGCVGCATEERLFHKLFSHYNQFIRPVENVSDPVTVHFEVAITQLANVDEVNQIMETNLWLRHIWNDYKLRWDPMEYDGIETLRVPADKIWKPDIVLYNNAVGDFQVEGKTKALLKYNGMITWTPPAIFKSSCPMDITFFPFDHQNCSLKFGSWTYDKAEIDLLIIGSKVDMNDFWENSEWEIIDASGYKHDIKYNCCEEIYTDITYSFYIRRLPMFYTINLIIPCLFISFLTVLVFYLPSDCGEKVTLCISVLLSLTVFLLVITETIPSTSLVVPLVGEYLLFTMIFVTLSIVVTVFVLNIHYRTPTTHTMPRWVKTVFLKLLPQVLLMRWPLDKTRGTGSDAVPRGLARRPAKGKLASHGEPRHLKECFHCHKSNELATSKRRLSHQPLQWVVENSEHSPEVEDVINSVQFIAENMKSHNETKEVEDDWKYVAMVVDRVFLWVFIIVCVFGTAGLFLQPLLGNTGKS
Sequence of Neuronal acetylcholine receptor; alpha4/beta2 (P09483 whole entry): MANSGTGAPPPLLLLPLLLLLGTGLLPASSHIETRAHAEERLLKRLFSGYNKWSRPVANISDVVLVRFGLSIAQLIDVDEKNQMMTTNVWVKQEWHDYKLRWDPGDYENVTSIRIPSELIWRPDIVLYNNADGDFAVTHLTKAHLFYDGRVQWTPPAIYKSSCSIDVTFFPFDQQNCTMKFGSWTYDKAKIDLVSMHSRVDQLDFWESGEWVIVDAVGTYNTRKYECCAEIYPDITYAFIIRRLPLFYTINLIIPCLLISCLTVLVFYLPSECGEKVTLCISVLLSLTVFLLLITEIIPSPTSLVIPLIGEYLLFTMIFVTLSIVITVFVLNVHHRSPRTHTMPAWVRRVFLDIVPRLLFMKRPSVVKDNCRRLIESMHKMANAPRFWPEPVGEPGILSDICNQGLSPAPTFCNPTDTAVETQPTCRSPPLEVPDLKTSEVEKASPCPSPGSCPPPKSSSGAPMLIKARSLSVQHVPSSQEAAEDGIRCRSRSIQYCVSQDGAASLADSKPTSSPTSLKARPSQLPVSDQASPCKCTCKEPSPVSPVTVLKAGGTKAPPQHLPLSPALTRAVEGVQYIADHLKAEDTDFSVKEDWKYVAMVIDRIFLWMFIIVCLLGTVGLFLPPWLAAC
Sequence of Neuronal acetylcholine receptor; alpha4/beta2 (P12390 whole entry): as the sequence (P12390 whole entry) above

CC[C@H](C)[C@@H]1NC(=O)[C@H](Cc2cnc[nH]2)NC(=O)[C@@H]2CCCN2C(=O)[C@H](CC(N)=O)NC(=O)[C@H](CC(N)=O)NC(=O)[C@H](C(C)C)NC(=O)[C@H](CC(N)=O)NC(=O)[C@@H]2CSSC[C@H](NC(=O)CN)C(=O)N[C@@H](CSSC[C@@H](C(=O)O)NC1=O)C(=O)N[C@@H](CO)C(=O)N[C@@H](CC(=O)O)C(=O)N1CCC[C@H]1C(=O)N[C@@H](C)C(=O)N2 (H-GCCSDPACNVNNPHIC-OH; disulfide 2-8, 3-16)
IC50 [1]: 7.14 µM
IC50 [2]: 13.7 µM
IC50 [3]: 0.1 µM
IC50 [4]: 0.2 µM
IC50 [5]: 0.099 µM
IC50 [6]: 7.48 µM
IC50 [7]: 0.13 µM
IC50 [8]: 0.12 µM

CC(C)C[C@@H]1NC(=O)[C@H](CC(=O)O)NC(=O)[C@@H]2CCCN2C(=O)[C@H](Cc2cnc[nH]2)NC(=O)[C@H](C)NC(=O)[C@H](CC(N)=O)NC(=O)[C@H](CCCNC(=N)N)NC(=O)[C@@H]2CSSC[C@H](NC(=O)CN)C(=O)N[C@@H](CSSC[C@@H](C(=O)O)NC1=O)C(=O)N[C@@H](CO)C(=O)N[C@@H](CC(=O)O)C(=O)N1CCC[C@H]1C(=O)N1CCC[C@H]1C(=O)N2 (H-GCCSDPPCRNAHPDLC-OH; disulfide 2-8, 3-16)
IC50 [1]: > 10 µM
IC50 [2]: > 10 µM
IC50 [3]: 0.2 µM
IC50 [4]: 1.58 µM
IC50 [5]: 0.28 µM
IC50 [6]: > 10 µM
IC50 [7]: 3.29 µM
IC50 [8]: 0.28 µM

C[C@@H]1NC(=O)[C@H](C)NC(=O)[C@@H]2CSSC[C@H](NC(=O)CNC(=O)CN)C(=O)N[C@@H](CSSC[C@@H](C(N)=O)NC(=O)[C@H](Cc3ccc(OS(=O)(=O)O)cc3)NC(=O)[C@H](CC(=O)O)NC(=O)[C@H](CCC(N)=O)NC(=O)[C@H](CC(N)=O)NC(=O)[C@H](CC(N)=O)NC1=O)C(=O)N[C@@H](CO)C(=O)N[C@@H](Cc1cnc[nH]1)C(=O)N1CCC[C@H]1C(=O)N[C@@H](C)C(=O)N2
IC50 [9]: 0.00028 µM

C[C@@H]1NC(=O)[C@@H]2CSSC[C@H](NC(=O)CN)C(=O)N[C@@H](CSSC[C@@H](C(=O)N[C@@H](CCCNC(=N)N)C(=O)O)NC(=O)[C@H](Cc3cnc[nH]3)NC(=O)[C@H](CCC(=O)O)NC(=O)[C@H](Cc3cnc[nH]3)NC1=O)C(=O)N[C@@H](CO)C(=O)N[C@@H](CC(N)=O)C(=O)N1CCC[C@H]1C(=O)N1CCC[C@H]1C(=O)N2 (H-GCCSNPPCAHEHCR-OH; disulfide 2-8, 3-13)
IC50 [10]: > 10 µM
IC50 [11]: > 10 µM
inhibition [12]: inactive
inhibition [13]: inactive
IC50 [3]: 1.1 µM
IC50 [14]: > 10 µM
IC50 [15]: > 10 µM
inhibition [16]: inactive
inhibition [17]: inactive
IC50 [18]: > 10 µM
IC50 [19]: > 10 µM
inhibition [20]: inactive
inhibition [21]: inactive
IC50 [9]: > 10 µM
IC50 [22]: 0.63 µM
IC50 [23]: > 10 µM

C[C@@H]1NC(=O)[C@@H]2CSSC[C@H](NC(=O)[C@@H](N)CCC(N)=O)C(=O)N[C@@H](CSSC[C@@H](C(N)=O)NC(=O)[C@H](Cc3cnc[nH]3)NC(=O)[C@H](CCC(=O)O)NC(=O)[C@H](Cc3cnc[nH]3)NC1=O)C(=O)N[C@@H](CO)C(=O)N[C@@H](CC(N)=O)C(=O)N1CCC[C@H]1C(=O)N1CCC[C@H]1C(=O)N2 (H-QCCSNPPCAHEHC-NH2; disulfide 2-8, 3-13)
IC50 [10]: > 10 µM
IC50 [11]: > 10 µM
inhibition [12]: inactive
inhibition [13]: inactive
IC50 [3]: 0.47 µM
IC50 [14]: > 10 µM
IC50 [15]: > 10 µM
inhibition [16]: inactive
inhibition [17]: inactive
IC50 [18]: > 10 µM
IC50 [19]: > 10 µM
inhibition [20]: inactive
inhibition [21]: inactive
IC50 [9]: 1.56 µM
IC50 [22]: 0.55 µM
IC50 [23]: > 10 µM

CC[C@H](C)[C@H](N)C(=O)N[C@@H](CCCNC(=N)N)C(=O)N[C@@H](CC(=O)O)C(=O)N[C@@H](CCC(=O)O)C(=O)N[C@H]1CSSC[C@H]2NC(=O)[C@H](C)NC(=O)[C@@H]3CCCN3C(=O)[C@H](CC(N)=O)NC(=O)[C@H](CO)NC(=O)[C@H](CSSC[C@@H](C(=O)N[C@@H](CCCNC(=N)N)C(=O)N[C@@H](CCCNC(=N)N)C(=O)N[C@@H](CCCNC(=N)N)C(=O)O)NC(=O)[C@H](C(C)C)NC(=O)[C@H](Cc3cnc[nH]3)NC(=O)[C@@H]3CCCN3C(=O)[C@H](CC(N)=O)NC(=O)[C@H](CC(N)=O)NC(=O)[C@H](C(C)C)NC(=O)[C@H](CCCNC(=N)N)NC2=O)NC1=O
IC50 [9]: 0.018 µM

CSCC[C@@H]1NC(=O)[C@H](CC(N)=O)NC(=O)[C@@H]2CSSC[C@H](NC(=O)CN)C(=O)N[C@@H](CSSC[C@@H](C(=O)O)NC(=O)[C@H](Cc3ccc(OS(=O)(=O)O)cc3)NC(=O)[C@H](CC(=O)O)NC(=O)[C@@H]3CCCN3C(=O)[C@H](CC(N)=O)NC(=O)[C@H](CC(N)=O)NC1=O)C(=O)N[C@@H](CO)C(=O)N[C@@H](CC(=O)O)C(=O)N1CCC[C@H]1C(=O)N[C@@H](CCCNC(=N)N)C(=O)N2 (H-GCCSDPRCNMNNPD[sY]C-OH; disulfide 2-8, 3-16)
IC50 [3]: 0.03 µM
